In DBAASP:

Key:
Assay in all cases: ≥ marks a high value that may be exact or a test limit, other limits are often not marked, values filed in µg/mL are converted to µM
[1] = test system: Salmonella typhimurium CCARM 8007
[2] = test system: Acinetobacter baumannii CCARM 12005
[3] = test system: Escherichia coli KCTC 2593
[4] = test system: Escherichia coli KCTC 1682
[5] = test system: Acinetobacter baumannii CCARM 12037
[6] = test system: Staphylococcus epidermidis KCTC 1917
[7] = test system: Pseudomonas aeruginosa CCARM 2095
[8] = test system: Acinetobacter baumannii CCARM 12036
[9] = test system: Staphylococcus aureus CCARM 3108
[10] = test system: Staphylococcus aureus KCTC 1916
[11] = test system: Pseudomonas aeruginosa CCARM 2163
[12] = test system: Pseudomonas aeruginosa CCARM 2002
[13] = test system: Staphylococcus aureus CCARM 3090
[14] = test system: Escherichia coli KCTC 2571
[15] = test system: Bacillus subtilis KCTC 1022
[16] = test system: Escherichia coli CCARM 1238
[17] = test system: Pseudomonas aeruginosa KCTC 1637
[18] = test system: Bacillus subtilis KCTC 1021
[19] = test system: Bacillus subtilis KCTC 3068
[20] = test system: Staphylococcus aureus KCTC 3881
[21] = test system: Staphylococcus aureus CCARM 3089
[22] = test system: Pseudomonas aeruginosa KCTC 2004
[23] = test system: Staphylococcus aureus CCARM 3126
[24] = test system: Salmonella typhimurium KCTC 1926
[25] = test system: Staphylococcus aureus KCTC 1621
[26] = test system: Salmonella typhimurium CCARM 8003
[27] = test system: Escherichia coli CCARM 1229
[28] = test system: Salmonella typhimurium CCARM 8009
[29] = test system: Staphylococcus aureus CCARM 3114
[30] = test system: Acinetobacter baumannii CCARM 12035
[31] = test system: Pseudomonas aeruginosa KCTC 2513
[32] = test system: Pseudomonas aeruginosa CCARM 2003
Escherichia coli DL7 = test system: Escherichia coli DL7
[33] = test system: Staphylococcus epidermidis ATCC 12228
Bacillus subtilis PS832 = test system: Bacillus subtilis PS832
[34] = test system: Klebsiella aerogenes ATCC 13048
[35] = test system: Xanthomonas axonopodis pv. glycines ISBF 327
[36] = test system: Pseudomonas aeruginosa ATCC 27853
[37] = test system: Staphylococcus aureus ATCC 29313
[38] = test system: Escherichia coli ATCC 25922
[39] = test system: Staphylococcus aureus BCRC 10780
[40] = test system: Streptococcus pneumoniae BCRC 10794
[41] = test system: Pseudomonas aeruginosa ATCC 10419
Escherichia coli K88 = test system: Escherichia coli K88
[42] = test system: Pseudomonas aeruginosa ATCC 21625
Escherichia coli UB1005 = test system: Escherichia coli UB1005
Escherichia coli 078 = test system: Escherichia coli 078
[43] = test system: Enterococcus faecalis ATCC 29212
[44] = test system: Pseudomonas aeruginosa ATCC 21630
Escherichia coli ER2566 = test system: Escherichia coli ER2566
[45] = test system: Staphylococcus aureus ATCC 25923
[46] = test system: Bacillus subtilis ATCC 11060
[47] = test system: Salmonella enterica subsp. enterica serovar Typhimurium C77-31
[48] = test system: Salmonella enterica subsp. enterica serovar Pullorum C79-13
Escherichia coli 44102 = test system: Escherichia coli 44102
[49] = test system: Salmonella enterica subsp. enterica serovar Typhimurium ATCC 14028

Measured: MIC

CC[C@H](C)[C@H](NC(=O)CNC(=O)[C@H](CCCN=C(N)N)NC(=O)[C@H](Cc1ccccc1)NC(=O)[C@@H](NC(=O)[C@H](Cc1cnc[nH]1)NC(=O)[C@H](Cc1cnc[nH]1)NC(=O)[C@H](Cc1ccccc1)NC(=O)[C@H](C)N)[C@@H](C)CC)C(=O)N[C@H](C(=O)N[C@@H](Cc1cnc[nH]1)C(=O)N[C@H](C(=O)NCC(=O)N[C@@H](CCCCN)C(=O)N[C@H](C(=O)N[C@H](C(=O)N[C@@H](Cc1cnc[nH]1)C(=O)N[C@@H](CCCN=C(N)N)C(=O)N[C@@H](CC(C)C)C(=O)N[C@H](C(=O)N[C@H](C(=O)NCC(=O)O)[C@@H](C)O)C(C)C)[C@@H](C)CC)[C@@H](C)O)C(C)C)C(C)C [AFHHIFRGIVHVGKTIHRLVTG]
4 µM: [17] | [18] | [19] | [22]
1 µM: [10] | [15] | [25]
2 µM: [2] | [3] | [4] | [5] | [6] | [7] | [8] | [11] | [12] | [14] | [20] | [30] | [32]
8 µM: [1] | [9] | [13] | [16] | [21] | [23] | [24] | [26] | [27] | [28] | [29] | [31]

CC[C@H](C)[C@H](NC(=O)[C@H](CCCN=C(N)N)NC(=O)[C@H](CCCCN)NC(=O)[C@H](CC(C)C)NC(=O)[C@H](CC(C)C)NC(=O)CNC(=O)[C@H](Cc1cnc[nH]1)NC(=O)[C@H](C)NC(=O)[C@@H](N)CC(=O)O)C(=O)N[C@@H](CCCCN)C(=O)N[C@H](C(=O)N[C@@H](CC(C)C)C(=O)N[C@@H](CC(C)C)C(N)=O)[C@@H](C)O [DAHGLLKRIKTLL]
16 µM: [33]
≥ 32 µM: [34]
8 µM: Escherichia coli DL7
2 µM: Bacillus subtilis PS832

CC[C@H](C)[C@H](NC(=O)CN)C(=O)NCC(=O)N[C@@H](CC(=O)O)C(=O)N[C@H](C(=O)N[C@@H](CC(C)C)C(=O)N[C@@H](CCCCN)C(=O)N[C@@H](CC(N)=O)C(=O)N[C@@H](CC(C)C)C(=O)N[C@@H](C)C(=O)N[C@@H](CCCCN)C(=O)N[C@@H](C)C(=O)N[C@@H](C)C(=O)NCC(=O)N[C@@H](CCCCN)C(=O)N[C@@H](C)C(=O)N[C@@H](C)C(=O)N[C@@H](CC(C)C)C(=O)N[C@@H](Cc1cnc[nH]1)C(=O)N[C@@H](C)C(=O)N[C@H](C(=O)NCC(=O)N[C@@H](CCC(=O)O)C(=O)N[C@@H](CO)C(=O)N[C@@H](CC(C)C)C(N)=O)C(C)C)[C@@H](C)CC [GIGDILKNLAKAAGKAALHAVGESL]
19 µM: [37] | [38]
2 µM: [35]
77 µM: [36]

CC[C@H](C)[C@H](NC(=O)[C@H](Cc1cnc[nH]1)NC(C)=O)C(=O)N[C@H](C(=O)N[C@@H](CCCCN)C(=O)NCC(=O)N[C@@H](CC(C)C)C(N)=O)[C@@H](C)CC [HIIKGL]
≥ 147 µM: [39] | [40]

CC[C@H](C)[C@H](NC(=O)[C@H](CCCCN)NC(=O)[C@H](CCCCN)NC(=O)[C@H](CC(C)C)NC(=O)[C@H](CCCN=C(N)N)NC(=O)[C@H](Cc1c[nH]c2ccccc12)NC(=O)[C@H](CCCN=C(N)N)NC(=O)[C@@H](NC(=O)[C@H](CCCCN)NC(=O)[C@H](Cc1c[nH]c2ccccc12)NC(=O)[C@H](CCCN=C(N)N)NC(=O)[C@H](CC(C)C)NC(=O)[C@H](CCCN=C(N)N)NC(=O)[C@H](CCCN=C(N)N)NC(=O)[C@H](Cc1ccccc1)NC(=O)[C@@H](N)CCCN=C(N)N)[C@@H](C)O)C(N)=O [RFRRLRWKTRWRLKKI]
> 128 µM: [36]
≥ 32 µM: [42]
16 µM: [41] | [44]
4 µM: Escherichia coli K88 | Escherichia coli UB1005 | Escherichia coli 078 | [43]
≥ 128 µM: [48]
8 µM: Escherichia coli ER2566 | [33] | [46] | [47] | Escherichia coli 44102 | [49]
32 µM: [45]
